Data as given in the supplement of paper PMC11451515.

Test system: P12-Ichikawa
Assay: cell viability relative to DMSO control; higher = less cytotoxic
Details: 48 h
Outline: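 Viability was expressed as a per-plate percentage of DMSO wells, with cell-free wells as background. Leukemia cells (NOMO1 or SEM at 500 cells/well, P12-Ichikawa at 1000 cells/well) were adapted for at least four passages in each medium and seeded in 1536-well plates (5 μl). Library compounds in DMSO were pin-dosed over an 11-point threefold series from 47 μM to 0.79 nM, and CellTiter-Glo One luminescence was read after 48 h at 37°C.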

[1] = HPLM + 10% dialyzed FBS, 0.000781 µM
[2] = HPLM + 10% dialyzed FBS, 0.00234 µM
[3] = HPLM + 10% dialyzed FBS, 0.00702 µM
[4] = HPLM + 10% dialyzed FBS, 0.0211 µM
[5] = HPLM + 10% dialyzed FBS, 0.0632 µM
[6] = HPLM + 10% dialyzed FBS, 0.19 µM
[7] = HPLM + 10% dialyzed FBS, 0.569 µM
[8] = HPLM + 10% dialyzed FBS, 1.71 µM
[9] = HPLM + 10% dialyzed FBS, 5.12 µM
[10] = HPLM + 10% dialyzed FBS, 15.4 µM
[11] = HPLM + 10% dialyzed FBS, 46.1 µM
[12] = RPMI 5 mM glucose + 10% FBS, 0.000781 µM
[13] = RPMI 5 mM glucose + 10% FBS, 0.00234 µM
[14] = RPMI 5 mM glucose + 10% FBS, 0.00702 µM
[15] = RPMI 5 mM glucose + 10% FBS, 0.0211 µM
[16] = RPMI 5 mM glucose + 10% FBS, 0.0632 µM
[17] = RPMI 5 mM glucose + 10% FBS, 0.19 µM
[18] = RPMI 5 mM glucose + 10% FBS, 0.569 µM
[19] = RPMI 5 mM glucose + 10% FBS, 1.71 µM
[20] = RPMI 5 mM glucose + 10% FBS, 5.12 µM
[21] = RPMI 5 mM glucose + 10% FBS, 15.4 µM
[22] = RPMI 5 mM glucose + 10% FBS, 46.1 µM
[23] = RPMI 5 mM glucose + 10% dialyzed FBS, 0.000781 µM
[24] = RPMI 5 mM glucose + 10% dialyzed FBS, 0.00234 µM
[25] = RPMI 5 mM glucose + 10% dialyzed FBS, 0.00702 µM
[26] = RPMI 5 mM glucose + 10% dialyzed FBS, 0.0211 µM
[27] = RPMI 5 mM glucose + 10% dialyzed FBS, 0.0632 µM
[28] = RPMI 5 mM glucose + 10% dialyzed FBS, 0.19 µM
[29] = RPMI 5 mM glucose + 10% dialyzed FBS, 0.569 µM
[30] = RPMI 5 mM glucose + 10% dialyzed FBS, 1.71 µM
[31] = RPMI 5 mM glucose + 10% dialyzed FBS, 5.12 µM
[32] = RPMI 5 mM glucose + 10% dialyzed FBS, 15.4 µM
[33] = RPMI 5 mM glucose + 10% dialyzed FBS, 46.1 µM

Row | SMILES | cell viability [1] | cell viability [2] | cell viability [3] | cell viability [4] | cell viability [5] | cell viability [6] | cell viability [7] | cell viability [8] | cell viability [9] | cell viability [10] | cell viability [11] | cell viability [12] | cell viability [13] | cell viability [14] | cell viability [15] | cell viability [16] | cell viability [17] | cell viability [18] | cell viability [19] | cell viability [20] | cell viability [21] | cell viability [22] | cell viability [23] | cell viability [24] | cell viability [25] | cell viability [26] | cell viability [27] | cell viability [28] | cell viability [29] | cell viability [30] | cell viability [31] | cell viability [32] | cell viability [33]
1 | N#Cc1c(NC(=O)c2cccc3ccccc23)sc2c1CCCC2 | 121% | 122% | 126% | 123% | 136% | 132% | 82.4% | 21.6% | 18.2% | 28.2% | 27.4% | – | – | – | – | – | – | – | – | – | – | – | – | – | – | – | – | – | – | – | – | – | –
2 | CNC[C@H](O)c1ccc(O)c(O)c1 | 96.9% | 101% | 94.8% | 94.6% | 102% | 93.9% | 90.2% | 90.9% | 91.7% | 85.7% | 85.8% | 102% | 97.3% | 88.6% | 99.3% | 97.9% | 94.9% | 91.7% | 89.5% | 93.5% | 89.6% | 89.9% | 87.9% | 92.6% | 91% | 87.3% | 90.6% | 92.3% | 81.9% | 85.1% | 82% | 78.9% | 78.2%
3 | O=C(NC[C@H](O)CO)c1ccncc1Nc1ccc(I)cc1F | 100% | 112% | 71.4% | 113% | 107% | 105% | 102% | 102% | 97.5% | 91.4% | 87.5% | 101% | 118% | 66.3% | 106% | 96% | 90.4% | 98.6% | 91.4% | 88.7% | 78.6% | 59.6% | 94.9% | 119% | 73.4% | 118% | 99.5% | 109% | 105% | 104% | 90.2% | 96.6% | 76.5%
4 | Cc1[nH]c2ccccc2c1CCNCc1ccc(/C=C/C(=O)NO)cc1 | 109% | 106% | 111% | 120% | 121% | 103% | 63.1% | 7.05% | 6.95% | 7.08% | 7.23% | 106% | 120% | 108% | 107% | 128% | 109% | 48.2% | 6.65% | 6.49% | 8.3% | 6.44% | 114% | 109% | 117% | 111% | 122% | 113% | 74.4% | 6.85% | 6.73% | 6.95% | 7.21%
5 | CNC(=O)c1ccc(N2C(=S)N(c3ccc(C#N)c(C(F)(F)F)c3)C(=O)C23CCC3)cc1F | 86.5% | 92.3% | 101% | 9.68% | 108% | 101% | 97% | 103% | 103% | 107% | 102% | 88% | 86.8% | 101% | 13.1% | 94.9% | 98% | 102% | 99.6% | 99.3% | 103% | 106% | 75.4% | 87.7% | 88.6% | 24.7% | 97.7% | 96.6% | 92.7% | 91% | 97.8% | 96.7% | 98.5%
6 | CN1\C(=C(\O)C2=CC=CC=C2[S+]1([O-])=O)C(=O)NC3=NC=C(C)S3 | 95% | 95.7% | 93.9% | 94.6% | 99.3% | 100% | 98.4% | 98.3% | 101% | 97.5% | 112% | 91.8% | 91.7% | 88% | 86% | 93.8% | 88.8% | 84.8% | 89% | 95.4% | 96.7% | 112% | 79.3% | 92.8% | 83.1% | 91.4% | 96.2% | 87% | 92.7% | 87.8% | 80.8% | 90% | 86.7%
7 | Cc1cn(-c2cc(NC(=O)c3ccc(C)c(Nc4nccc(-c5cccnc5)n4)c3)cc(C(F)(F)F)c2)cn1 | 102% | 101% | 108% | 109% | 110% | 107% | 106% | 12% | 13.1% | 9.96% | 10.8% | 112% | 111% | 114% | 117% | 113% | 112% | 110% | 43.6% | 11.4% | 12.1% | 11% | 103% | 113% | 114% | 112% | 115% | 113% | 114% | 23.9% | 24.5% | 26.7% | 22.7%
